The target of assay [1] is T1, IKKε (Homo sapiens, UniProt Q14164).
T1 construct: His-tag; made in house; host or cells: Sf9 insect cells
T1 sequence (Q14164 1-716): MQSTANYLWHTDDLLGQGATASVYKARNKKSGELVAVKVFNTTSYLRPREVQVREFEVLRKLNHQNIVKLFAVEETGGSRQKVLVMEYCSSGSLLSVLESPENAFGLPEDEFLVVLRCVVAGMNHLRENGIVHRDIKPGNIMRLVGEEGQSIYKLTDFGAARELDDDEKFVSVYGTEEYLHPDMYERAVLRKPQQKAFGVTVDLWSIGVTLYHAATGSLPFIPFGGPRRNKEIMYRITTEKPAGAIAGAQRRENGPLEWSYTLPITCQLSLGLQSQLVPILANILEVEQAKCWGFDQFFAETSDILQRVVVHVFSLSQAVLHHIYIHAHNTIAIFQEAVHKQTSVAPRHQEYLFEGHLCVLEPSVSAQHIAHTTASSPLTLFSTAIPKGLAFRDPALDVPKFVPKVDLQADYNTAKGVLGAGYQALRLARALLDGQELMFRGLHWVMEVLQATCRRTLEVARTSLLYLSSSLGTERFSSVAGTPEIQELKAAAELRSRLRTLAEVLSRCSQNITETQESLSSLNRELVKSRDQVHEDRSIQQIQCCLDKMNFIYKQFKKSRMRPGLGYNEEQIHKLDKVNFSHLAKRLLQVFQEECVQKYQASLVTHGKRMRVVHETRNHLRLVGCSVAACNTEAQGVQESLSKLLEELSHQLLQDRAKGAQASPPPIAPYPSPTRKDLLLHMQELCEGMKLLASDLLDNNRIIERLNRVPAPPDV
Description: In-vitro IKKε kinase assay ([γ33]ATP filter-plate). Format: biochemical. The method, boiled down:
(§1)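 His-tagged IKKε and TBK1 from Sf9 cells were assayed with myelin basic protein or casein and [γ33]ATP at 2×Km ATP (32 μM for IKKε, 60 μM for TBK1). Enzyme was 0.1 or 0.015 μg/ml for IKKε and 0.1 or 0.02 μg/ml for TBK1 (normal/sensitized). Reactions ran 30-45 min, were filter-captured, scintillation-counted, and normalized to DMSO after background subtraction.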

Assay [2] concerns the target T2, TBK1 (Homo sapiens, UniProt Q9UHD2).
T2 construct: His-tag; made in house; host or cells: Sf9 insect cells
T2 sequence (Q9UHD2 1-729): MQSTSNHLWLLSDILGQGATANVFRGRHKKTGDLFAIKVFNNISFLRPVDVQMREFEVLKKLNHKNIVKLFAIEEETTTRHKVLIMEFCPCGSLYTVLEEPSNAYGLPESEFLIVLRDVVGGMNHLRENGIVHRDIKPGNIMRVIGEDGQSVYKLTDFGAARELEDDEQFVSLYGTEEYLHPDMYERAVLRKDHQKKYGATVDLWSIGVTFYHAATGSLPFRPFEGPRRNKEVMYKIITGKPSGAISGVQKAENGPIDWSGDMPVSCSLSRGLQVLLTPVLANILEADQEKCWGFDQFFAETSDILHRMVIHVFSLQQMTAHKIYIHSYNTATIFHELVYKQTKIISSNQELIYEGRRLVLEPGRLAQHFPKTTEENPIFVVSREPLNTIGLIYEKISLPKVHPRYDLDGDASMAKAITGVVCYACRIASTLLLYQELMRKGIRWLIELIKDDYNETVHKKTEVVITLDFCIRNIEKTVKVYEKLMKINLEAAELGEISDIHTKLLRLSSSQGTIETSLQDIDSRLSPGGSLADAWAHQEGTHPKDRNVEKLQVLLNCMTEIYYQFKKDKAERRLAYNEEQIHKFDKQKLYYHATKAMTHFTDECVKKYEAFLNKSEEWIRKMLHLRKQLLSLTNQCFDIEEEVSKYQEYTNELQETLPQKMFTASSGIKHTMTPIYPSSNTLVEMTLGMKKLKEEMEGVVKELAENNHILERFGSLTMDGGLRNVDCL
Description: In-vitro TBK1 kinase assay ([γ33]ATP filter-plate). It is filed as biochemical. The method, boiled down:
as §1

Assay [3] relates to IKKε-mediated phosphorylation of IRF3. Description: In-situ phosphorylation of IRF3 (pIRF3 Ser396 ELISA) in HEK293T cells cotransfected with IRF3 and IKKε. Format: cell-based. The following applies: Homo sapiens, HEK-293T. The method, boiled down: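 Cells for the IRF7 Western blots carried IRF7 and TBK1 plasmids, were seeded at 150,000/well, exposed to compound overnight and probed for pSer477/Ser479 IRF7. The ELISA readout used IRF3 + IKKε-cotransfected HEK293T at 20,000/well with 20 h treatment, quantifying pSer396 IRF3 relative to DMSO, plus a parallel CellTiter-Glo viability check.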

Where [4] appears, read: text bins, read-out: IC50 for inhibition of the kinase activity of IKKε.
[5] abbreviates: text bins, read-out: IC50 for inhibition of the kinase activity of TBK1.
Setting [6] is: HEK293T cells, 20 hours, text bins, read-out: IC50 for inhibition of the in-situ IKKε-mediated phosphorylation of IRF3.
Where [7] appears, read: HEK293T cells in culture, Table 3, read-out: pIRF3 ELISA IC50.

Where two headings read alike, the source gives them in different places.

In patent US20150352108A1, “AMINO-PYRIMIDINE COMPOUNDS AS INHIBITORS OF TBK1 AND/OR IKK EPSILON” (Alzheimer's Institute of America, priority 2009, published 2015) one finds IC50 data, which are given here for 18 molecules.

Turning to `COc1ccc(-c2ccnc(Nc3ccc(N4CCOCC4)c(OC)c3)n2)cc1C#N` [Example 157, 2-Methoxy-5-(2-{[3-methoxy-4-(morpholin-4-yl)phenyl]amino}pyrimidin-4-yl)benzonitrile], the IC50 is under 5 nM in assay [1] (setting [4]), under 10 nM in assay [2] (setting [5]) and 250 to 500 nM in assay [3] (setting [6]).
In the case of `COc1cc(Nc2nccc(-c3ccc(OC4CCOCC4)c(C#N)c3)n2)ccc1S(=O)(=O)NCCCN1CCOCC1` [Example 176], the IC50 is 0.9 nM in assay [1] (Table 3, read-out: IKKε IC50); under 5 nM in assay [1] (setting [4]); 0.3 nM in assay [2] (Table 3, read-out: TBK1 IC50); under 10 nM in assay [2] (setting [5]); 12.5 nM in assay [3] (setting [7]); under 100 nM in assay [3] (setting [6]).
Turning to `CN1CCN(c2ccc(Nc3nccc(-c4ccc(OC5CCOCC5)c(C#N)c4)n3)cc2)CC1` [Example 178, 5-(2-{[4-(4-methylpiperazin-1-yl)phenyl]amino}pyrimidin-4-yl)-2-(tetrahydro-2H-pyran-4-yloxy)benzonitrile], the IC50 in assay [1] (setting [4]) was under 5 nM; in assay [2] (setting [5]), under 10 nM; in assay [3] (setting [6]) it was under 100 nM.
Regarding `CC(C)(C)CC(=O)Nc1ccc(-c2ccnc(Nc3ccc(N4CCOCC4)cc3)n2)cc1C#N` [Example 202, N-[2-cyano-4-(2-{[4-(morpholin-4-yl)phenyl]amino}pyrimidin-4-yl)phenyl]-3,3-dimethylbutanamide], the IC50 in assay [1] (setting [4]) is 5 to 50 nM; in assay [2] (setting [5]) it was under 10 nM; in assay [3] (setting [6]) it was 100 to 250 nM.
In the same order, the values of `COc1ccc(Nc2nccc(-c3ccc(N(C)C)c(C#N)c3)n2)cc1OC` [Example 206, 5-{2-[(3,4-Dimethoxyphenyl)amino]pyrimidin-4-yl}-2-(dimethylamino) benzonitrile] are under 5 nM, under 10 nM and 250 to 500 nM.
With `COc1cc(Nc2nccc(-c3ccc(OC4CCN(C(=O)[C@H](C)O)CC4)c(C#N)c3)n2)ccc1N1CCOCC1` [Example 208, 2-({1-[(2S)-2-hydroxypropanoyl]piperidin-4-yl}oxy)-5-(2-{[3-methoxy-4-(morpholin-4-yl)phenyl]amino}pyrimidin-4-yl)benzonitrile], the values for the IC50 in assay [1] (setting [4]), in assay [2] (setting [5]) and in assay [3] (setting [6]) were under 5 nM, under 10 nM and 250 to 500 nM, respectively.
In the same order, the values of `COc1cc(Nc2nccc(-c3ccc(OC4CCOCC4)c(C#N)c3)n2)ccc1S(=O)(=O)N(C)C1CCN(C)CC1` [Example 212] are under 5 nM, under 10 nM and under 100 nM.
On to `N#Cc1cc(-c2ccnc(Nc3ccc(N4CCOCC4)cc3)n2)ccc1OCC1CCCN(C(=O)CO)C1` (centres unmarked) [Example 219, 2-{[1-(hydroxyacetyl)piperidin-3-yl]methoxy}-5-(2-{[4-(morpholin-4-yl)phenyl]amino}pyrimidin-4-yl)benzonitrile], for which the IC50 in assay [1] (setting [4]) was 5 to 50 nM; in assay [2] (setting [5]) it was under 10 nM; in assay [3] (setting [6]) it was 100 to 250 nM.
In the same order, the values of `COc1cc(Nc2nccc(-c3ccc(OC4CCN(C(=O)CO)C4)c(C#N)c3)n2)ccc1N1CCOCC1` (centres unmarked) [Example 223, 2-{[1-(hydroxyacetyl)pyrrolidin-3-yl]oxy}-5-(2-{[3-methoxy-4-(morpholin-4-yl)phenyl]amino}pyrimidin-4-yl)benzonitrile] are under 5 nM, under 10 nM and under 100 nM.
Take `N#Cc1cc(-c2ccnc(Nc3ccc(N4CCOCC4)cc3)n2)ccc1OC1CCN(S(N)(=O)=O)C1` (centres unmarked) [Example 225, 3-[2-cyano-4-(2-{[4-(morpholin-4-yl)phenyl]amino}pyrimidin-4-yl)phenoxy]pyrrolidine-1-sulfonamide]: the IC50 in assay [1] (setting [4]) was under 5 nM; in assay [2] (setting [5]), under 10 nM; in assay [3] (setting [6]), 100 to 250 nM.
In the same order, the values of `N#Cc1cc(-c2ccnc(Nc3ccc(N4CCOCC4)cc3)n2)ccc1OC1CCN(C=O)CC1` [Example 242, 2-[(1-formylpiperidin-4-yl)oxy]-5-(2-{[4-(morpholin-4-yl)phenyl]amino}pyrimidin-4-yl)benzonitrile] are under 5 nM, under 10 nM and 250 to 500 nM.
In the same order, the values of `COc1cc(Nc2nccc(-c3ccc(OC4CCOCC4)c(C#N)c3)n2)ccc1S(=O)(=O)NC1CCN(C)CC1` [Example 253, 4-({4-[3-cyano-4-(tetrahydro-2H-pyran-4-yloxy)phenyl]pyrimidin-2-yl}amino)-2-methoxy-N-(1-methylpiperidin-4-yl)benzenesulfonamide] are under 5 nM, under 10 nM and 250 to 500 nM.
In the same order, the values of `COc1cc(Nc2nccc(-c3ccc(OC4CCOCC4)c(C#N)c3)n2)ccc1OCCCN1CCN(C)CC1` [Example 256, 5-[2-({3-methoxy-4-[3-(4-methylpiperazin-1-yl)propoxy]phenyl}amino)pyrimidin-4-yl]-2-(tetrahydro-2H-pyran-4-yloxy)benzonitrile] are under 5 nM, under 10 nM and 100 to 250 nM.
`COc1cc(Nc2nccc(-c3ccc(OC4CCOCC4)c(C#N)c3)n2)ccc1O` [Example 262, 5-{2-[(4-hydroxy-3-methoxyphenyl)amino]pyrimidin-4-yl}-2-(tetrahydro-2H-pyran-4-yloxy)benzonitrile]: the IC50 was under 5 nM in assay [1] (setting [4]), under 10 nM in assay [2] (setting [5]) and 250 to 500 nM in assay [3] (setting [6]).
`CC(C)COc1ccc(-c2ccnc(Nc3ccc(N4CCOCC4)cc3)n2)cc1C#N` [Example 264, 2-(2-Methylpropoxy)-5-(2-{[4-(morpholin-4-yl)phenyl]amino}pyrimidin-4-yl)benzonitrile]: the IC50 in assay [1] (Table 3, read-out: IKKε IC50) was 0.6 nM; in assay [1] (setting [4]), under 5 nM; in assay [2] (Table 3, read-out: TBK1 IC50), 0.2 nM; in assay [2] (setting [5]) it was under 10 nM; in assay [3] (setting [7]), 654 nM.
For the molecule `CN1CCC(NCc2cccc(Nc3nccc(-c4ccc(OC5CCOCC5)c(C#N)c4)n3)c2)CC1` [Example 271, 5-{2-[(3-{[(1-Methylpiperidin-4-yl)amino]methyl}phenyl)amino]pyrimidin-4-yl}-2-(tetrahydro-2H-pyran-4-yloxy)benzonitrile], the IC50 in assay [1] (setting [4]) was under 5 nM; in assay [2] (setting [5]) it was under 10 nM; in assay [3] (setting [6]), under 100 nM.
On the same counts, the results for `COc1cc(Nc2nccc(-c3ccc(OC4CCOCC4)c(C#N)c3)n2)cc(OC)c1OC` [Example 290, 2-(Tetrahydro-2H-pyran-4-yloxy)-5-{2-[(3,4,5-trimethoxyphenyl)amino]pyrimidin-4-yl}benzonitrile] are under 5 nM, under 10 nM and 250 to 500 nM.
In the same order, the values of `COc1cc(Nc2nccc(-c3ccc(OC4CCOCC4)c(C#N)c3)n2)ccc1C(=O)NCCC1CCCN1C` (centres unmarked) [compound 307, 4-({4-[3-cyano-4-(tetrahydro-2H-pyran-4-yloxy)phenyl]pyrimidin-2-yl}amino)-2-methoxy-N-[2-(1-methylpyrrolidin-2-yl)ethyl]benzamide] are under 5 nM, under 10 nM and 100 to 250 nM.
